Data reported in patent US11340216B2, “Methods and compositions for the positive selection of protein destabilizers” (Dana-Farber Cancer Institute, Inc., priority 2016, dated 2022).

Tests used:
[1] = system: EV-GFP / dCK-Tomato cell mixture; test: Cell mixing (bystander effect) assay, EV-GFP cells with dCK-Tomato cells, flow cytometry; assay type: cell-based; settings: 100 μM BVdU, 100,000 cells/well, start 8% EV-GFP
Text: The scheme depicted in FIG. 14 generally describes the bystander effect assay in the context of dCK positive selection systems. Cells expressing dCK and tomato fluorescent protein (Td) are mixed with cells having empty vector (EV) and green fluorescent protein (GFP). When cultured with BVdU, cells expressing dCK are expected to convert the nucleotide analog into a product that elicits cytotoxicity, resulting in outgrowth of resistant cells (EV-GFP) as measured by relative GFP/Td fluorescence in the absence of significant bystander killing.
The effects of cell density in cell mixture experiments were examined. EV-GFP cells were mixed together with dCK-Tomato cells in a ratio of 1:9, and the resulting mixture of cells was plated in 6 well plates at 500,000 cells/well, 250,000 cells/well, and 100,000 cells/well, with two wells plated per cell density (FIG. 15). For each cell density, one well received 100 μM BVdU, and the other an equivalent amount of DMSO. Cells were split and re-seeded every 72 hours, to preserve cell density, and analyzed by flow cytometry to quantify the fraction of GFP and Tomato-labeled cells.

[2] = system: DCK-IKZF1-IRES-GFP in 293T cells; test: Pilot drug screen, up assay, 384 well, GFP fluorescence converted to Z-statistic; assay type: cell-based; settings: ~25 μM library drug, BVdU Day 1, read Day 5, FIG. 24
Procedure: Columns 1, 23, and 24 of the plate shown in FIG. 23 (right) were treated with DMSO, Pomalidomide, and Dipyridamole, respectively, while each well in Columns 2-22 was treated with an individual drug (concentration=˜25 μM) from a library of approximately 550 bioactive chemicals. On Day 1, Column 1 was treated with DMSO, and Columns 2-24 were treated with BVdU. On Day 5, GFP fluorescence in each well was quantified using an Acumen Laser Cytometer.

[3] = system: DCK-IKZF1-IRES-GFP; test: Same-well assay, 1:1 mixture of DCK-IRES-Tomato and DCK-IKZF1-IRES-GFP 293T stables, GFP/Tomato ratio; assay type: cell-based; settings: BVdU exposure, FIG. 28
Procedure: However, exposure of the cells to Pomalidomide and subsequent BVdU exposure specifically rescues the DCK-IKZF1-IRES-GFP population and increases the GFP/Tomato ratio.
This assay was deployed in a proof of concept experiment with a small library of ˜88 engineered IMiD derivatives and plated at 10 serial dilutions ranging from 10 μM to 300 pM.

[4] = system: dCK-IKZF3 fusion protein; test: BVdU sensitivity and pomalidomide rescue, cell count by Vi-Cell, cells expressing dCK-IKZF3 fusion; assay type: cell-based; settings: 2 μM pomalidomide, 100 μM BVdU, counted day 5, FIG. 7
Procedure: (§1) To assess the validity of the proposed positive selection system, a set of experiments was devised according to the technique outlined in FIG. 6. On day −2, 1×10^6 cells were seeded into a 6 cm dish with 4 mL of DMEM culture media. On day −1, 30,000 cells were seeded per well of a 6 well plate in DMEM media, and on day 0, media were replaced with DMEM media supplemented with decreasing concentrations of BVdU, generated by serial dilution. From days 0-4, media were replaced daily, and on day 5, cells were counted by Vi-Cell. For pomalidomide rescue experiments, the cells were seeded as described above, but from day −2 onwards, were maintained in DMEM media supplemented with 2 μM pomalidomide (Selleck Chemicals).

[5] = target: T1, deoxycytidine kinase (dCK) (Homo sapiens, UniProt P27707); test: BVdU sensitivity and pomalidomide rescue, cell count by Vi-Cell, cells expressing unfused dCK; assay type: cell-based; settings: 2 μM pomalidomide, BVdU dose-response, FIG. 8
T1 construct: V5 (only if expressed from the GFP vector); expressed in transfected cells
Procedure: as §1

[6] = system: dCK-IKZF3 fusion protein; test: Competition assay, dCK-IKZF3 GFP cells mixed with dCK tdTomato cells, flow cytometry; assay type: cell-based; settings: 2 μM pomalidomide plus 100 μM BVdU, 14 days, FIG. 22
Text: Next, a competition assay was devised using dCK and CK-IKZF constructs (FIG. 21). In these experiments, cells expressing dCK-IKZF fusion protein and GFP were mixed with cells expressing dCK and tdTomato. In the presence of BVdU, cells expressing either construct would be capable of generating the cytotoxic product. However, upon the addition of an IMiD (pomalidomide), dCK-IKZF fusion protein would be destabilized, allowing outgrowth of GFP+ cells. dCK-IKZF3 cells labeled with GFP were mixed with dCK cells labeled with tdTomato at a ratio of 1:99 and on day −2, were plated into 6 well plates at 100,000 cells/well in triplicate. On Day −1, the “Mock” and “BVdU” wells were treated with DMSO, and the “pomalidomide” well was treated with 2 μM pomalidomide. On day 0, the “Mock” well was treated with DMSO, while the “BVdU” well was treated with 100 μM BVdU, and the “pomalidomide” well received 2 μM pomalidomide and 100 μM BvDU. Cells were split, re-seeded to maintain cell density, treated with the appropriate drugs and analyzed by flow cytometry every 3 days.

[7] = system: DCK-IKZF1-IRES-GFP in 293T cells; test: Up assay with limited drug library of approximately 700 compounds; assay type: cell-based; settings: ~700 compound library, BVdU on Day 2, read Day 5, FIG. 25
Procedure: For the up assay experiment, 293T cells stably infected to produce DCK-IKZF1-IRES-GFP were seeded in three 384 well plates on Day 0. Each well on each plate received a library drug from a ˜700 compound drug library, and BVdU on Day 2.

[8] = system: IKZF3 and IKZF3 fusion proteins; settings: 2 μM or 20 μM Pomalidomide, FIG. 5
Procedure: HEK-293FT (Invitrogen) cells were maintained in DMEM medium supplemented with 10% FBS, 100 U/mL Penicillin and 100 μg/mL streptomycin. Stable cell lines were established by lentiviral infection followed by growth in media containing 10 μg/mL blasticidin, followed by fluorescence activated cell sorting to collect GFP-expressing cells.
On day 0, 250,000 cells were seeded into each of three wells of a 6-well plate. […] Cells were washed twice with ice-cold PBS and harvested in EBC Lysis Buffer supplemented with 1× protease inhibitor (Roche). Whole cell extracts were resolved by SDS-PAGE, transferred onto a nitrocellulose membrane, and probed with indicated primary antibodies.

[9] = target: T2, IKZF1-Firefly luciferase protein in 293T cells (UniProt P08659+Q13422+Q96SW2); test: Down assay, Firefly/Renilla luciferase ratio; assay type: cell-based; settings: read Day 5, FIG. 26
T2 construct: expressed in transfected cells; host or cells: 293T, stably infected
Procedure: A down assay experiment was conducted in parallel with the up assay experiment. For the down assay experiment, 293T cells stably infected to produce the IKZF1-Firefly luciferase protein as well as the Renilla luciferase protein from a single mRNA transcript were treated as described in the “Up” Assay. On Day 5, for each plate, Firefly and Renilla luciferase signals were quantified, and the Firefly/Renilla ratio calculated for each well and converted to a Z-statistic and plotted (FIG. 26). The hits noted in the “Up Assay” have been labeled in FIG. 25 and FIG. 26 to allow for comparison between the two assays.

T1 sequence (P27707 whole entry, species assumed, the tested form may be a part): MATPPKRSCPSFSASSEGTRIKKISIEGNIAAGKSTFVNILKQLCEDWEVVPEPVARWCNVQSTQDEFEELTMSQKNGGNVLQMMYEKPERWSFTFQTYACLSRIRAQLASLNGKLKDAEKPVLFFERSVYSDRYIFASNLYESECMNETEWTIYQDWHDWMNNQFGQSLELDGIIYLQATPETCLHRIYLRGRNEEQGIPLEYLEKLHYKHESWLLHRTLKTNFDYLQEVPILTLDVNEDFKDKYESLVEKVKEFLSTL
T2 sequence (Q13422+P08659 fused): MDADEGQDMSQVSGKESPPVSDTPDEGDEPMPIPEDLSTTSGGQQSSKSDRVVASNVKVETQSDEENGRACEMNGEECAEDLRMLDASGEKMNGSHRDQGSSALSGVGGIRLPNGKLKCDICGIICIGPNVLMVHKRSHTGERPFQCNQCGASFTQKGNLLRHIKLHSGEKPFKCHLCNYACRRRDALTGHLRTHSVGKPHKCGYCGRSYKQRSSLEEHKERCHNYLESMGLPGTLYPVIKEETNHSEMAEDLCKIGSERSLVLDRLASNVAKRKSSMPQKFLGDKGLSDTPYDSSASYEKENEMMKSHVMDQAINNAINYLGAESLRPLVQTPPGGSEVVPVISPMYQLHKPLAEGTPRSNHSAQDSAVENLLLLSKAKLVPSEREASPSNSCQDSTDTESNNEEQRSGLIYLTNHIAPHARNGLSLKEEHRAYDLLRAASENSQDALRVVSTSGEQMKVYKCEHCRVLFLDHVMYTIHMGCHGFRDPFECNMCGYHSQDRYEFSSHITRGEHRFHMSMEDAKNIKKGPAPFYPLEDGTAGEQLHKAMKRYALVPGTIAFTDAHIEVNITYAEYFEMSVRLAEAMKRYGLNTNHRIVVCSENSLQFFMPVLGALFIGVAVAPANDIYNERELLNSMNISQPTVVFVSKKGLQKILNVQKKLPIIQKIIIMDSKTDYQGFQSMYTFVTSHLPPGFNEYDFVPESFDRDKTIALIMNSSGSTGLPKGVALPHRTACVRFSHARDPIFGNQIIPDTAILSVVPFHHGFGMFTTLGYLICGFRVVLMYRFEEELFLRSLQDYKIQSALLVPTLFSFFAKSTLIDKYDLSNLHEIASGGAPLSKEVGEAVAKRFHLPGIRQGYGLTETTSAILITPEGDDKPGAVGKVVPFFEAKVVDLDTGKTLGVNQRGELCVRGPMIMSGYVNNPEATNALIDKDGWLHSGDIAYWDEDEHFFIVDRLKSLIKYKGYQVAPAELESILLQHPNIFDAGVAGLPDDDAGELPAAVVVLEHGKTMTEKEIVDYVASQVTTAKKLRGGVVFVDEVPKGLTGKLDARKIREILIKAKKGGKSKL
T2 sequence (Q96SW2 whole entry): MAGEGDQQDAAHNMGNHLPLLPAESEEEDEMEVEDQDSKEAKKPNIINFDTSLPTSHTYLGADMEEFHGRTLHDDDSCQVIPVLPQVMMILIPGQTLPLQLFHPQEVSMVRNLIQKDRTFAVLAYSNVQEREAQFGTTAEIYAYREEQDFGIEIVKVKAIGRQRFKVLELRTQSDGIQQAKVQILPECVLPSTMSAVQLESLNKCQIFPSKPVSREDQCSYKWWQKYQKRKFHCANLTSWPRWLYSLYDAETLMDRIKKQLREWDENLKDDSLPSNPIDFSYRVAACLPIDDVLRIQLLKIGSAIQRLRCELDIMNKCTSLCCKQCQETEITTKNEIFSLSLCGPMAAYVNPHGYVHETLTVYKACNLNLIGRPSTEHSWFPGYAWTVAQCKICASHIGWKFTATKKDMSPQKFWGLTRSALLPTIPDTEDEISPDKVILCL
T2 sequence (Q16531 whole entry partner): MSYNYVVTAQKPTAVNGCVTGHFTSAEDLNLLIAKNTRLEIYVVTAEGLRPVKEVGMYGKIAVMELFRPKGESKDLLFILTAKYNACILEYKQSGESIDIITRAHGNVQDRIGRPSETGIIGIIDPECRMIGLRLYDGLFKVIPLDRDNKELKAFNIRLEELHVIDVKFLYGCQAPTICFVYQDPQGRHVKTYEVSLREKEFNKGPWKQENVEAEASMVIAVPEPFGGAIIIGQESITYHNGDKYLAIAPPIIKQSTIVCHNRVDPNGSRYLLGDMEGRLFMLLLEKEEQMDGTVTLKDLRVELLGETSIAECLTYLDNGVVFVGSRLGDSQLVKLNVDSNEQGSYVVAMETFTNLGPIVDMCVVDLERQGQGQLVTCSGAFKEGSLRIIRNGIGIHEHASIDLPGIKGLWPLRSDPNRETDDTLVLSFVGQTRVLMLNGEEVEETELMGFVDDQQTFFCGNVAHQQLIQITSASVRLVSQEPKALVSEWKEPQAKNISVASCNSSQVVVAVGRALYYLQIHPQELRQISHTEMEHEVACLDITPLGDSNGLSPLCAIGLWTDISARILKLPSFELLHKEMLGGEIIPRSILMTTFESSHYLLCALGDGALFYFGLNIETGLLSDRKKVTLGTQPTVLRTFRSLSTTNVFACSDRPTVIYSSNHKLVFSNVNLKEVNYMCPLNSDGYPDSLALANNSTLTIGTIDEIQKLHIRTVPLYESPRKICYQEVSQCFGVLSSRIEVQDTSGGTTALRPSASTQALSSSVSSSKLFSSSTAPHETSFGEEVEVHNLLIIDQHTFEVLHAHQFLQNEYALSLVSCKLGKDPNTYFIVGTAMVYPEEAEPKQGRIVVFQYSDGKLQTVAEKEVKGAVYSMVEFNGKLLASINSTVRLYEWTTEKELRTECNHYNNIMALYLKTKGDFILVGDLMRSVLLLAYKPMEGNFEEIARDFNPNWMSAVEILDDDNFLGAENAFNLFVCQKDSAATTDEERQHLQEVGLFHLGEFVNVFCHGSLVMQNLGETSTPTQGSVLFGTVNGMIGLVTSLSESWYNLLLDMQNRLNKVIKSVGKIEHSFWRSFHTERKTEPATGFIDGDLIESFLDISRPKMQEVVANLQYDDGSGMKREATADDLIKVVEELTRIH

O=c1[nH]c(=O)n([C@H]2C[C@H](O)[C@@H](CO)O2)cc1/C=C/Br [BVdU, bromovinyl-deoxyuridine]
EV-GFP cells as fraction of the cell mixture ([1]; day 3): 29%
EV-GFP cells as fraction of the cell mixture ([1]; day 7): 88%

OCCN(CCO)c1nc(N2CCCCC2)c2nc(N(CCO)CCO)nc(N3CCCCC3)c2n1 [Dipyridamole, dipyridamole]
Hit classification in pilot up-assay screen (GFP Z-statistic) [2]: non-specific hits
Classification by GFP and GFP/Tomato ratio in the same well [3]: assay positive

Nc1cccc2c1C(=O)N(C1CCC(=O)NC1=O)C2=O (stereo not shown) [Pomalidomide, pomalidomide]
Rescue of cell viability from BVdU in cells expressing the fusion construct (CK-IKZF+Pom) [4]: partial rescue and cell growth
Rescue from BVdU in cells expressing enzyme only (DCK+Pom) [5]: rescue did not occur
Outgrowth of GFP+ (dCK-IKZF3) cells from 1% initial population [6]: allowed for outgrowth of GFP+cells
Hit classification in pilot up-assay screen (GFP Z-statistic) [2]: true-positive hits
Hit classification in up assay (GFP Z-statistic) [7]: true-positive hits
Classification by GFP and GFP/Tomato ratio in the same well [3]: true positive
Cellular levels of IKZF3 and IKZF3 fusion proteins [8]: highly sensitive

Cc1cn([C@H]2C[C@H](O)[C@@H](CO)O2)c(=O)[nH]c1=O [Thymidine]
Hit classification in up assay (GFP Z-statistic) [7]: assay positive
Hit classification in down assay (Firefly/Renilla ratio Z-statistic) [9]: does not score
